{"source": "paper PMC5962729", "about": "(Frontiers in Pharmacology, 2018)", "key": {"[1]": {"tested_on": "ANIT-induced cholestatic liver injury", "test": "Serum biochemistry (ALT, AST, TBIL, DBIL, TBA) in ANIT-induced cholestatic liver injury", "type": "in vivo, rat", "description": "(§1) Ltd. (Shanghai, China) and fed in the Laboratory Animal Center of Shanghai University of Traditional Chinese Medicine. […] The rats were randomly divided into six groups (n = 5 for each group). […] [Cao et al., 2017]). […] Before and 24 h after modeling, retro-orbital blood samples were collected in a coagulation tube, and they were then centrifuged at 4°C for 10 min (4000 rpm) to obtain the serum for the assay of ALT, AST, TBIL, DBIL, and TBA. At the end of the experiment, all rats were euthanized by CO2 inhalation. The serum samples were stored at -70°C until analysis, and liver samples were isolated and stored at -70°C for further analysis, whereas the central part of the right large lobe of the liver was used for histological examination.  FIGURE 2 The scheme of the animal experimental design. […] UDCA, positive control group treated with ursodeoxycholic acid (UDCA) (100 mg/kg, […].); […] A closed IV catheter system (Becton Dickinson, United States) was applied to cannulate the bile duct, and the bile specimens were collected into tubes at 2 h intervals for 6 h. The collected serum samples were maintained at room temperature to dissolve. The serum levels of ALT, AST, TBIL, DBIL, and TBA were then determined using a chemistry analyzer system (HITACHI 7080, Japan)."}, "[2]": {"tested_on": "ANIT-induced intrahepatic cholestasis", "test": "Bile flow rate in ANIT-induced cholestatic rats", "type": "in vivo, rat", "settings": "UDCA 100 mg/kg i.g. + ANIT 50 mg/kg; over 360 min at 48 h after ANIT; not significant vs model", "description": "as §1"}, "[3]": {"tested_on": "ANIT-induced cholestatic liver injury", "test": "Liver histopathological examination (H&E) in ANIT-induced cholestatic rats", "type": "in vivo, rat", "settings": "UDCA + ANIT 50 mg/kg", "description": "(§2) Male Sprague Dawley rats (230 ± 20 g, 6–8 weeks of age) were purchased from B&K Laboratory Animal, Corp. Ltd. (Shanghai, China) and fed in the Laboratory Animal Center of Shanghai University of Traditional Chinese Medicine. All rats were allowed to acclimatize for 3 days before experimentation. The rats were randomly divided into six groups (n = 5 for each group). […] Moreover, groups 1 and 2 were intragastrically treated with physiological saline (0.9%) at a dose of 1 mL/100 g. […] At the end of the experiment, all rats were euthanized by CO2 inhalation. The serum samples were stored at -70°C until analysis, and liver samples were isolated and stored at -70°C for further analysis, whereas the central part of the right large lobe of the liver was used for histological examination."}, "UGT1A1": {"tested_on": "UGT1A1", "test": "Expression level of UGT1A1 in rat liver by UHPLC-MS/MS", "type": "in vivo", "description": "as §2\n(§3) Biotransformation of xenobiotics and endogenous compounds is a crucial step in the absorption and elimination of potentially harmful substances from the human body, a process that could be affected by the levels of pharmacokinetic enzymes and transporter proteins. […]\n(§4) Total membrane protein was isolated (in triplicate) from liver tissue according to the Native Membrane Protein Extraction Kit protocol. Subsequently, protein concentrations were determined by applying the BCA Protein Assay Kit. […]"}, "MRP2": {"tested_on": "MRP2", "test": "Expression level of MRP2 in rat liver by UHPLC-MS/MS", "type": "in vivo", "experimental": "(§5) Male Sprague Dawley rats (230 ± 20 g, 6–8 weeks of age) were purchased from B&K Laboratory Animal, Corp. Ltd. (Shanghai, China) and fed in the Laboratory Animal Center of Shanghai University of Traditional Chinese Medicine. All rats were allowed to acclimatize for 3 days before experimentation. The rats were randomly divided into six groups (n = 5 for each group). […] The rats in groups 4, 5, and 6 were intragastrically administered YCHD every 24 h for 10 consecutive days. The rats in group 3 were orally administered UDCA at a dose of 100 mg/kg every 24 h for 10 consecutive days, which is well-documented to treat induced liver injury and cholestasis ([Chen et al., 2016]; [Cao et al., 2017]). Moreover, groups 1 and 2 were intragastrically treated with physiological saline (0.9%) at a dose of 1 mL/100 g. […] At the end of the experiment, all rats were euthanized by CO2 inhalation. The serum samples were stored at -70°C until analysis, and liver samples were isolated and stored at -70°C for further analysis, whereas the central part of the right large lobe of the liver was used for histological examination. […]"}, "BSEP": {"tested_on": "BSEP", "test": "Expression level of BSEP in rat liver by UHPLC-MS/MS", "type": "in vivo", "description": "as §2, §3, §4"}, "OCT1": {"tested_on": "OCT1", "test": "Expression level of OCT1 in rat liver by UHPLC-MS/MS", "type": "in vivo", "description": "as §2, §3, §4"}, "NTCP": {"tested_on": "NTCP", "test": "Expression level of NTCP in rat liver by UHPLC-MS/MS", "type": "in vivo", "experimental": "as §5"}, "MDR1": {"tested_on": "MDR1", "test": "Expression level of MDR1 in rat liver by UHPLC-MS/MS", "type": "in vivo", "description": "as §2, §3, §4"}, "OATP1A1": {"tested_on": "OATP1A1", "test": "Expression level of OATP1A1 in rat liver by UHPLC-MS/MS", "type": "in vivo", "settings": "UDCA group, ANIT-treated rats; mean ± S.D.", "experimental": "as §5"}, "OATP1A2": {"tested_on": "OATP1A2", "test": "Expression level of OATP1A2 in rat liver by UHPLC-MS/MS", "type": "in vivo", "experimental": "as §5"}, "OATP1A4": {"tested_on": "OATP1A4", "test": "Expression level of OATP1A4 in rat liver by UHPLC-MS/MS", "type": "in vivo", "experimental": "as §5"}, "[4]": {"settings": "UDCA 100 mg/kg i.g. daily 10 days, ANIT 50 mg/kg on day 8, serum"}, "[5]": {"settings": "UDCA group, ANIT-treated rats, mean ± S.D."}, "[6]": {"settings": "UDCA-treated cholestatic rats, liver, not statistically significant"}, "[7]": {"settings": "UDCA-treated cholestatic rats, liver, as compared with the control group, p < 0.05"}}}
{"smiles": "C[C@H](CCC(=O)O)[C@H]1CC[C@H]2[C@@H]3[C@@H](O)C[C@@H]4C[C@H](O)CC[C@]4(C)[C@H]3CC[C@]12C", "note": "[UDCA, Ursodeoxycholic acid]", "values": [{"measurement": "ALT", "setting": "[1]; [4]", "result": "400.6±200.0", "unit": "IU/L"}, {"measurement": "AST", "setting": "[1]; [4]", "result": "611.8±257.2", "unit": "IU/L"}, {"measurement": "DBIL", "setting": "[1]; [4]", "result": "21.2 ± 9.0", "unit": "µmol/L"}, {"measurement": "TBA", "setting": "[1]; [4]", "result": "428.1 ± 55.9", "unit": "µmol/L"}, {"measurement": "TBIL", "setting": "[1]; [4]", "result": "28.2 ± 19.0", "unit": "µmol/L"}, {"measurement": "serum TBA decreased to (printed), compared with the control group (printed)", "setting": "[1]; UDCA 100 mg/kg, ANIT-treated rats, p < 0.001", "result": 30.9, "unit": "%"}, {"measurement": "serum DBIL decreased to (printed), compared with the control group (printed)", "setting": "[1]; UDCA 100 mg/kg, ANIT-treated rats, p < 0.01", "result": 40.9, "unit": "%"}, {"measurement": "bile flow rate", "setting": "[2]", "result": "0.29 ± 0.12", "unit": "μL/min⋅100 g B.W."}, {"measurement": "liver histopathology (H&E)", "setting": "[3]", "result": "hepatocyte hydropic degeneration with less neutrophil infiltration and a milder degree of bile duct epithelial damage"}, {"measurement": "Ugt1a1 expression level in rat liver", "setting": "UGT1A1; [5]", "result": "6.06±1.34", "unit": "fmol/μg protein"}, {"measurement": "UGT1A1 level, fold higher", "setting": "UGT1A1; UDCA-treated cholestatic rats, liver, as compared with the control group, p < 0.01", "result": 2.1, "unit": "fold"}, {"measurement": "Mrp2 expression level in rat liver", "setting": "MRP2; [5]", "result": "2.21±0.87", "unit": "fmol/μg protein"}, {"measurement": "MRP2 expression upregulated, fold", "setting": "MRP2; [6]", "result": 1.5, "unit": "fold"}, {"measurement": "Bsep expression level in rat liver", "setting": "BSEP; [5]", "result": "18.1±2.56", "unit": "fmol/μg protein"}, {"measurement": "BSEP level, fold higher", "setting": "BSEP; [7]", "result": 1.2, "unit": "fold"}, {"measurement": "Oct1 expression level in rat liver", "setting": "OCT1; [5]", "result": "2.22±0.59", "unit": "fmol/μg protein"}, {"measurement": "OCT1 level, fold higher", "setting": "OCT1; [7]", "result": 2.1, "unit": "fold"}, {"measurement": "Ntcp expression level in rat liver", "setting": "NTCP; [5]", "result": "4.22±1.51", "unit": "fmol/μg protein"}, {"measurement": "NTCP level, fold higher", "setting": "NTCP; [7]", "result": 2.2, "unit": "fold"}, {"measurement": "Mdr1 expression level in rat liver", "setting": "MDR1; [5]", "result": "0.67±0.32", "unit": "fmol/μg protein"}, {"measurement": "MDR1 level, fold higher", "setting": "MDR1; [7]", "result": 2.4, "unit": "fold"}, {"measurement": "Oatp1a1 expression level in rat liver", "setting": "OATP1A1", "result": "3.42±1.23", "unit": "fmol/μg protein"}, {"measurement": "Oatp1a2 expression level in rat liver", "setting": "OATP1A2; [5]", "result": "1.27±0.18", "unit": "fmol/μg protein"}, {"measurement": "OATP1A2 level, fold higher", "setting": "OATP1A2; [7]", "result": 1.5, "unit": "fold"}, {"measurement": "Oatp1a4 expression level in rat liver", "setting": "OATP1A4; [5]", "result": "0.49±0.11", "unit": "fmol/μg protein"}, {"measurement": "OATP1A4 expression upregulated, fold", "setting": "OATP1A4; [6]", "result": 1.3, "unit": "fold"}]}
